The numbers were not newly measured in patent US20140079639A1, “METHODS AND COMPOSITIONS FOR IDENTIFYING, PRODUCING AND USING PLANT-DERIVED PRODUCTS FOR MODULATING CELL FUNCTION AND AGING” (LIFESPAN EXTENSION, LLC, priority 2009, published 2014), which cites them from elsewhere.

Molecules are shown by their SMILES.

For data set [1] the following is noted: when absorbed into the body.
The conditions of data set [2]: oxidation of lipids due to e.g. UV radiation or free radical damage.
In data set [3] the test system is fibroblast cells. Conditions: cells treated in culture.

With `COC1=C(OC)C(=O)C(C/C=C(\C)CC/C=C(\C)CC/C=C(\C)CC/C=C(\C)CC/C=C(\C)CC/C=C(\C)CC/C=C(\C)CC/C=C(\C)CC/C=C(\C)CCC=C(C)C)=C(C)C1=O` [ubiquinone, Ubiquinone], the “conversion to the active antioxidant form ubiquinol” value in data set [1] is given as 90%.
Regarding `COC1=C(OC)C(=O)C(CCCCCCCCCCO)=C(C)C1=O` [idebenone, 6-(10-hydroxydecyl)-2,3-dimethoxy-5-methyl-1,4-benzoquin-one], in data set [2], the “reduction of lipid hydroperoxides among the tested antioxidants” value is “highest reduction”.
Consider `NCCC(=O)N[C@@H](Cc1cnc[nH]1)C(=O)O` [Carnosine], for which the “extension of lifespan of fibroblast cells past the Hayflick limit of non-treated cells” value in data set [3] is reported as “up to 10 divisions”.
On to `O=C(O)/C=C/c1ccc(O)c(O)c1` [Caffeic Acid, (E)-3-(3,4-dihydroxyphenyl)-2-propenoic acid], for which the solubility result was “soluble in water and alcohol”.
